# Measurements as given in the NIST ThermoML archive (doi:10.1021/je7003929).
# Numbers after ± are expanded uncertainties.
# Experiment: xn = mol fraction of the nth substance listed
# Conditions: Liquid, Vibrating tube method
smiles,measurement,setting,value
c1ccc2sccc2c1 [benzo[b]thiophene] + CCCCCC,mass density,"313.13 K, 11018 kPa, x2 = 0.7491",771.6 ± 0.5 kg/m3
same,mass density,"313.13 K, 12036 kPa, x2 = 0.7491",772.6 ± 0.5 kg/m3
same,mass density,"313.13 K, 13021 kPa, x2 = 0.7491",773.5 ± 0.5 kg/m3
same,mass density,"313.13 K, 14007 kPa, x2 = 0.7491",774.3 ± 0.5 kg/m3
same,mass density,"313.13 K, 15006 kPa, x2 = 0.7491",775.2 ± 0.5 kg/m3
same,mass density,"313.13 K, 16012 kPa, x2 = 0.7491",776 ± 0.5 kg/m3
same,mass density,"313.13 K, 17016 kPa, x2 = 0.7491",776.9 ± 0.5 kg/m3
same,mass density,"313.13 K, 18000 kPa, x2 = 0.7491",777.8 ± 0.5 kg/m3
same,mass density,"313.13 K, 19017 kPa, x2 = 0.7491",778.6 ± 0.5 kg/m3
same,mass density,"313.13 K, 20030 kPa, x2 = 0.7491",779.5 ± 0.5 kg/m3
same,mass density,"313.15 K, 1025 kPa, x2 = 0.4495",910.7 ± 0.4 kg/m3
same,mass density,"313.15 K, 2010 kPa, x2 = 0.4495",911.5 ± 0.4 kg/m3
same,mass density,"313.15 K, 3028 kPa, x2 = 0.4495",912.4 ± 0.5 kg/m3
same,mass density,"313.15 K, 4011 kPa, x2 = 0.4495",913.2 ± 0.5 kg/m3
same,mass density,"313.15 K, 5013 kPa, x2 = 0.4495",914 ± 0.5 kg/m3
same,mass density,"313.15 K, 6021 kPa, x2 = 0.4495",914.8 ± 0.5 kg/m3
same,mass density,"313.15 K, 7010 kPa, x2 = 0.4495",915.6 ± 0.5 kg/m3
same,mass density,"313.15 K, 8033 kPa, x2 = 0.4495",916.4 ± 0.5 kg/m3
same,mass density,"313.15 K, 9029 kPa, x2 = 0.4495",917.2 ± 0.5 kg/m3
same,mass density,"313.15 K, 10015 kPa, x2 = 0.4495",918 ± 0.5 kg/m3
same,mass density,"313.15 K, 11018 kPa, x2 = 0.4495",918.8 ± 0.5 kg/m3
same,mass density,"313.15 K, 12012 kPa, x2 = 0.4495",919.5 ± 0.5 kg/m3
same,mass density,"313.15 K, 13010 kPa, x2 = 0.4495",920.3 ± 0.5 kg/m3
same,mass density,"313.15 K, 14022 kPa, x2 = 0.4495",921 ± 0.5 kg/m3
same,mass density,"313.15 K, 15019 kPa, x2 = 0.4495",921.8 ± 0.5 kg/m3
same,mass density,"313.15 K, 16008 kPa, x2 = 0.4495",922.6 ± 0.5 kg/m3
same,mass density,"313.15 K, 17018 kPa, x2 = 0.4495",923.3 ± 0.5 kg/m3
same,mass density,"313.15 K, 18027 kPa, x2 = 0.4495",924.1 ± 0.5 kg/m3
same,mass density,"313.15 K, 19006 kPa, x2 = 0.4495",924.8 ± 0.5 kg/m3
same,mass density,"313.15 K, 20006 kPa, x2 = 0.4495",925.5 ± 0.5 kg/m3
same,mass density,"322.05 K, 1026 kPa, x2 = 0.4495",901.9 ± 0.4 kg/m3
same,mass density,"322.05 K, 2020 kPa, x2 = 0.4495",902.8 ± 0.4 kg/m3
same,mass density,"322.05 K, 3015 kPa, x2 = 0.4495",903.7 ± 0.4 kg/m3
same,mass density,"322.05 K, 4003 kPa, x2 = 0.4495",904.5 ± 0.5 kg/m3
same,mass density,"322.05 K, 5014 kPa, x2 = 0.4495",905.4 ± 0.5 kg/m3
same,mass density,"322.05 K, 6021 kPa, x2 = 0.4495",906.3 ± 0.5 kg/m3
same,mass density,"322.05 K, 7015 kPa, x2 = 0.4495",907.2 ± 0.5 kg/m3
same,mass density,"322.05 K, 8009 kPa, x2 = 0.4495",908 ± 0.5 kg/m3
same,mass density,"322.05 K, 9028 kPa, x2 = 0.4495",908.9 ± 0.5 kg/m3
same,mass density,"322.05 K, 10013 kPa, x2 = 0.4495",909.7 ± 0.5 kg/m3
same,mass density,"322.05 K, 11021 kPa, x2 = 0.4495",910.5 ± 0.5 kg/m3
same,mass density,"322.05 K, 12023 kPa, x2 = 0.4495",911.3 ± 0.5 kg/m3
same,mass density,"322.05 K, 13008 kPa, x2 = 0.4495",912.1 ± 0.5 kg/m3
same,mass density,"322.05 K, 14021 kPa, x2 = 0.4495",913 ± 0.5 kg/m3
same,mass density,"322.05 K, 15012 kPa, x2 = 0.4495",913.7 ± 0.5 kg/m3
same,mass density,"322.05 K, 16018 kPa, x2 = 0.4495",914.5 ± 0.5 kg/m3
same,mass density,"322.05 K, 17012 kPa, x2 = 0.4495",915.3 ± 0.5 kg/m3
same,mass density,"322.05 K, 18012 kPa, x2 = 0.4495",916.1 ± 0.5 kg/m3
same,mass density,"322.05 K, 19007 kPa, x2 = 0.4495",916.9 ± 0.5 kg/m3
same,mass density,"322.05 K, 20015 kPa, x2 = 0.4495",917.7 ± 0.5 kg/m3
same,mass density,"322.89 K, 1017 kPa, x2 = 0.2588",1000 ± 0.5 kg/m3
same,mass density,"322.89 K, 2023 kPa, x2 = 0.2588",1000.8 ± 0.5 kg/m3
same,mass density,"322.89 K, 3021 kPa, x2 = 0.2588",1001.5 ± 0.5 kg/m3
same,mass density,"322.89 K, 4016 kPa, x2 = 0.2588",1002.3 ± 0.5 kg/m3
same,mass density,"322.89 K, 5026 kPa, x2 = 0.2588",1003.1 ± 0.5 kg/m3
same,mass density,"322.89 K, 6030 kPa, x2 = 0.2588",1003.8 ± 0.5 kg/m3
same,mass density,"322.89 K, 7028 kPa, x2 = 0.2588",1004.6 ± 0.5 kg/m3
same,mass density,"322.89 K, 8018 kPa, x2 = 0.2588",1005.3 ± 0.5 kg/m3
same,mass density,"322.89 K, 9014 kPa, x2 = 0.2588",1006 ± 0.5 kg/m3
same,mass density,"322.89 K, 10021 kPa, x2 = 0.2588",1006.7 ± 0.5 kg/m3
same,mass density,"322.89 K, 11005 kPa, x2 = 0.2588",1007.5 ± 0.5 kg/m3
same,mass density,"322.89 K, 12022 kPa, x2 = 0.2588",1008.2 ± 0.5 kg/m3
same,mass density,"322.89 K, 13013 kPa, x2 = 0.2588",1008.9 ± 0.5 kg/m3
same,mass density,"322.89 K, 14012 kPa, x2 = 0.2588",1009.6 ± 0.5 kg/m3
same,mass density,"322.89 K, 15017 kPa, x2 = 0.2588",1010.3 ± 0.5 kg/m3
same,mass density,"322.89 K, 16016 kPa, x2 = 0.2588",1011 ± 0.5 kg/m3
same,mass density,"322.89 K, 17002 kPa, x2 = 0.2588",1011.7 ± 0.5 kg/m3
same,mass density,"322.89 K, 18014 kPa, x2 = 0.2588",1012.4 ± 0.5 kg/m3
same,mass density,"322.89 K, 19024 kPa, x2 = 0.2588",1013.1 ± 0.5 kg/m3
same,mass density,"322.89 K, 20016 kPa, x2 = 0.2588",1013.8 ± 0.5 kg/m3
